This is an account of results in EP0964864B1, “PYRIDO 2,3-D PYRIMIDINES AND 4-AMINOPYRIMIDINES AS INHIBITORS OF CELLULAR PROLIFERATION” (priority 1997, dated 1998).

For test [1], the target named is FGF-1 (flg) receptor tyrosine kinase. Briefly: FGF receptor tyrosine kinase assay. Type of test: biochemical, human.
Test [2] concerns the target PDGF-β receptor tyrosine kinase. Briefly: PDGF receptor tyrosine kinase assay. Type of test: biochemical, mouse.

As for `CCNc1nc(Nc2ccccc2)ncc1C=CC(=O)OCC` [Example 17, Ethyl 3-(4-Ethylamino-2-phenylamino-pyrimidin-5-yl)acrylate], the IC50 – broadly, the point on the concentration scale where inhibition reaches its midpoint – in test [1] came out at 4.5 µM; in test [2], 3.7 µM.
